From patent publication US8969335B2, “Benzonitrile derivatives as kinase inhibitors” (MERCK PATENT GmbH, priority 2011, dated 2015)
pIC50: −log10 of the molar value.

Columns and labels:
[1] = target: TANK binding kinase (TBK1) (Homo sapiens (Human), UniProt Q9UHD2); test: TBK1 enzyme assay (384-well flashplate kinase assay); assay type: biochemical; conditions: 0.6 nM TBK1, 10 μM ATP, 30° C., 120 min
Description: Test for the Inhibition of TBK1
The kinase assay is performed as 384-well flashplate assay (for example for Topcount measurement).
0.6 nM TANK binding kinase (TBK1), 800 nM biotinylated MELK-derived peptide (Biotin-Ah-Ah-[sequence]) and 10 μM ATP (spiked with 0.25 μCi of ^33P-ATP/well) are incubated at 30° C. for 120 min in a total volume of 50 μl (10 mM MOPS, 10 mM Mg acetate, 0.1 mM EGTA, 1 mM DTT, 0.02% of Brij35, 0.1% of BSA, pH 7.5) with or without test compound. The reaction is stopped with 25 μl of 200 mM EDTA. After 30 min at room temperature, the liquid is removed, and each well is washed three times with 100 μl of 0.9% sodium chloride solution. Non-specific reaction is measured in the presence of 100 nM staurosporine. The radioactivity is measured in a Topcount (PerkinElmer).

IKKε = IKKε (Homo sapiens (Human), UniProt Q14164); test: IKKε kinase assay (384-well flashplate assay); assay type: biochemical; conditions: 1 nM IKKε, 10 μM ATP, 30° C., 2 hours; read-out: IKKε enzyme assay IC50
Chain of IKKε (Q14164 whole entry): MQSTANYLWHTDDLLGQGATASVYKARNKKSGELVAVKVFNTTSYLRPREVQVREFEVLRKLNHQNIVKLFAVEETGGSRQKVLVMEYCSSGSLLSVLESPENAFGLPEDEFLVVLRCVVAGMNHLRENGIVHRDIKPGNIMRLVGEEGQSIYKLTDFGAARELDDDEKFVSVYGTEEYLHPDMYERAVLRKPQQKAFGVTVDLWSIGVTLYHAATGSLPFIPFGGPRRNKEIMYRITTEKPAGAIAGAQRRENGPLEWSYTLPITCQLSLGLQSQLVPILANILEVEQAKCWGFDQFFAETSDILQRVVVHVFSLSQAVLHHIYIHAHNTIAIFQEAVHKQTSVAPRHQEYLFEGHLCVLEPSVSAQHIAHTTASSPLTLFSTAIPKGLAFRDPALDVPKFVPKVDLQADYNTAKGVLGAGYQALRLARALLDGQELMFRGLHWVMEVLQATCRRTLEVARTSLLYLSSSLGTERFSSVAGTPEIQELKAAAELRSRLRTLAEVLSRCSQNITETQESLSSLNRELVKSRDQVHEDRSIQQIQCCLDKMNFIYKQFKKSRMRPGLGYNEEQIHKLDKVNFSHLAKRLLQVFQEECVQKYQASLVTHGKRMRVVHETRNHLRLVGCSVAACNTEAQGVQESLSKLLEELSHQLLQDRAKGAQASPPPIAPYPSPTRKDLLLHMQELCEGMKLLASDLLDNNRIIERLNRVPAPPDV
Summary of the method: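 Recombinant IKKε (1 nM) phosphorylates biotinylated IκBα(19-42) peptide (800 nM) with 10 μM ATP spiked with ^33P-ATP, 2 h at 30° C in MOPS buffer pH 7.5. Stopped with EDTA, captured on flashplate, radioactivity counted; nonspecific signal defined with 3 μM BX-795; IC50 derived.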

[2] = test system: TBK1 + IKKε (phospho-IRF3 @ Ser 386, MDA-MB-468 cells); test: TBK1 + IKKε cell assay: dose response inhibition of phospho-IRF3 @ Ser 386 in MDA-MB-468 cells; assay type: cell-based; conditions: Homo sapiens, poly(I:C) stimulation, nuclear phospho-IRF3, read-out: TBK1 + IKKε cell assay IC50
Description: Day 1: MDA-MB-468 cells are detached using HyQ-Tase, counted and sown into a 384-well plate with TC surface and clear bottom in a density of 10,000 cells per well in a total volume of 35 μl of complete medium. Alternatively, the cells are sown directly from frozen glass vials.
Day 2: The cells are pre-treated with inhibitor compounds for 1 h prior to poly(I:C) stimulation. After incubation for 2 h with poly(I:C), the cells are fixed in (para)formaldehyde (PFA) and permeabilised using methanol (MeOH). The cells are then blocked and incubated with an anti-pIRF3 antibody at 4° C. overnight.
Day 3: The primary antibody is washed off, an AlexaFluor488-conjugated secondary antibody is added, the cells are contrast-stained with propidium iodide, followed by image acquisition on an IMX ultra-high content reader.

Chain of TANK binding kinase (TBK1) (Q9UHD2 whole entry): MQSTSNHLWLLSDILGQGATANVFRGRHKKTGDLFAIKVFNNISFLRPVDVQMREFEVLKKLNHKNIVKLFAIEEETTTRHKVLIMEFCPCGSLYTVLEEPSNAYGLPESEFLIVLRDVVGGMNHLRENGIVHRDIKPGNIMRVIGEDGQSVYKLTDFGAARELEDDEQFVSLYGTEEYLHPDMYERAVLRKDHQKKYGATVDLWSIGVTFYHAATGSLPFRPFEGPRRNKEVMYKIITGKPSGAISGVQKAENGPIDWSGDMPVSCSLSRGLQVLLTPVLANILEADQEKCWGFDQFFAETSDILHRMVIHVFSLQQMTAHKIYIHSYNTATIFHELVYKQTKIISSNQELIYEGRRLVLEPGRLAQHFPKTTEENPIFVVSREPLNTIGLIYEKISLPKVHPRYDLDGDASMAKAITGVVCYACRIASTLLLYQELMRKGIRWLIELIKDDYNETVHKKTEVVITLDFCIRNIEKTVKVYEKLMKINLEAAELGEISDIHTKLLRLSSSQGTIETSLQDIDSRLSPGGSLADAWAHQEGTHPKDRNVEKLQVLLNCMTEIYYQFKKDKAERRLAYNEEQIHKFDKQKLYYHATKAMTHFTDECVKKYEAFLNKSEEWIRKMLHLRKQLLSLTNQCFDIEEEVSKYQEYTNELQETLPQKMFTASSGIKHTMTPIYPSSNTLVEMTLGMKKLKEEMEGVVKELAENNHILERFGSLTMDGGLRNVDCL

| SMILES | pIC50 [1] | pIC50 (IKKε) | pIC50 [2] |
| --- | --- | --- | --- |
| N#Cc1cc(-c2ccnc(Nc3cnn(C[C@H]4C[C@@H]4CO)c3)n2)ccc1OC1CCOCC1 [Compound A67, 5-{2-[1-((1S,2S)-2-hydroxymethylcyclopropylmethyl)-1H-pyrazol-4-ylamino]pyrimidin-4-yl}-2-(tetrahydropyran-4-yloxy)benzonitrile] | 8.22 | 8.40 | 6.38 |
| N#Cc1cc(-c2ccnc(Nc3ccc(C4CCNCC4)nn3)c2)ccc1OC1CCOCC1 [Compound A71, 5-[2-(6-piperidin-4-ylpyridazin-3-ylamino)pyridin-4-yl]-2-(tetrahydropyran-4-yloxy)benzonitrile] | 7.68 | 8.22 | 5.62 |
| N#Cc1cc(-c2ccnc(Nc3cnc(C4CCNCC4)cn3)c2)ccc1OC1CCOCC1 [Compound A72, 5-[2-(5-piperidin-4-ylpyrazin-2-ylamino)pyridin-4-yl]-2-(tetrahydropyran-4-yloxy)benzonitrile] | 8.00 | 8.15 | 6.08 |
| N#Cc1cc(-c2ccnc(Nc3cnn([C@H]4CC[C@@H](O)CC4)c3)n2)ccc1OC1CCOCC1 [Compound A73, 5-{2-[1-(4-hydroxycyclohexyl)-1H-pyrazol-4-ylamino]pyrimidin-4-yl}-2-(tetrahydropyran-4-yloxy)benzonitrile] | 8.10 | 8.00 | 6.57 |
| N#Cc1cc(-c2ccnc(Nc3cc(C4CCNCC4)ccn3)c2)ccc1OC1CCOCC1 [Compound A74, 5-[2-(1′,2′,3′,4′,5′,6′-hexahydro-[4,4′]bipyridinyl-2-ylamino)pyridin-4-yl]-2-(tetrahydropyran-4-yloxy)benzonitrile] | 8.70 | 9.00 | 5.80 |
| N#Cc1cc(-c2ccnc(Nc3cnn(CCO)c3)n2)ccc1OC1CCOCC1 [Compound A75, 5-{2-[1-(2-hydroxyethyl)-1H-pyrazol-4-ylamino]pyrimidin-4-yl}-2-(tetrahydropyran-4-yloxy)benzonitrile] | 8.52 | 8.40 | 6.30 |
| COc1nc(Nc2nccc(-c3ccc(OC4CCOCC4)c(C#N)c3)n2)ccc1C1=CCNCC1 [Compound A76, 5-[2-(2-methoxy-1′,2′,3′,6′-tetrahydro[3,4′]bipyridinyl-6-ylamino)pyrimidin-4-yl]-2-(tetrahydropyran-4-yloxy)benzonitrile] | 7.57 | 7.68 | 5.21 |
| N#Cc1cc(-c2ccnc(Nc3cc(CN)ccn3)c2)ccc1OC1CCOCC1 [Compound A77, 5-[2-(4-aminomethyl-pyridin-2-ylamino)pyridin-4-yl]-2-(tetrahydropyran-4-yloxy)benzonitrile] | 7.52 | 7.92 | 5.85 |
| CN1CCC(c2ccnc(Nc3cc(-c4ccc(OC5CCOCC5)c(C#N)c4)ccn3)c2)CC1 [Compound A78, 5-[2-(1′-methyl-1′,2′,3′,4′,5′,6′-hexahydro-[4,4′]bipyridinyl-2-ylamino)pyridin-4-yl]-2-(tetrahydropyran-4-yloxy)benzonitrile] | 8.30 | 8.22 | 5.68 |
| N#Cc1cc(-c2ccnc(Nc3cnn(CCO)c3)c2)ccc1OC1CCOCC1 [Compound A79, 5-{2-[1-(2-hydroxyethyl)-1H-pyrazol-4-ylamino]pyridin-4-yl}-2-(tetrahydropyran-4-yloxy)benzonitrile] | 6.92 | 7.04 | 5.31 |
| Cc1cc(Nc2nccc(-c3ccc(OC4CCOCC4)c(C#N)c3)n2)no1 [Compound A80, 5-[2-(5-methylisoxazol-3-ylamino)pyrimidin-4-yl]-2-(tetrahydropyran-4-yloxy)benzonitrile] | 6.64 | 6.68 | 4.89 |
| CN(C)Cc1ccnc(Nc2cc(-c3ccc(OC4CCOCC4)c(C#N)c3)ccn2)c1 [Compound A81, 5-[2-(4-dimethyl-aminomethylpyridin-2-ylamino)pyridin-4-yl]-2-(tetrahydropyran-4-yloxy)benzonitrile] | 7.85 | 8.00 | 6.46 |
